This is an account of results in ChEMBL document CHEMBL1201862, “PubChem BioAssay data set” (2004).

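A five-concentration, 48-hour dose response in 96-well plates underlies each endpoint, interpolated linearly between surrounding concentrations. Here, GI50 denotes the concentration required for 50% inhibition of growth.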 Calls of active or inactive are those of the source. Rule as the data show it: active = GI50 up to about 1.1 µM and inactive = higher. Some results are limits rather than exact numbers.

Test systems include MOLT-4; CCRF-CEM; SNB-19; SF-539; OVCAR-4; NCI-H226; OVCAR-8; SK-MEL-5; NCI/ADR-RES; HL-60; HOP-62; IGROV-1; NCI-H522; ACHN; KM12; K562; UO-31; HCT-116; NCI-H23; RPMI-8226.
Test in all cases: NCI-60 cell line screen, 48 h

For the molecule `CC1C(=NO)C(C)C(c2ccccc2)N(N=O)C1c1ccccc1` (centres undefined), the GI50 with MOLT-4 was 12.2 µM (inactive); in the assay with CCRF-CEM, 28.1 µM (inactive); in the assay on SNB-19, 18.3 µM (inactive); in the assay with SF-539 it was 13.1 µM (inactive); in the assay on OVCAR-4, 19.6 µM (inactive); in the assay with NCI-H226, 24.7 µM (inactive). Further, the GI50 is 18 µM (inactive) in the assay with OVCAR-8; 18.9 µM (inactive) with SK-MEL-5; 17.5 µM (inactive) with NCI/ADR-RES; 25 µM (inactive) in the assay with HL-60; 19.1 µM (inactive) in the assay on HOP-62; 19.6 µM (inactive) in the assay with IGROV-1. Further, the GI50 is 14.7 µM (inactive) with NCI-H522; 20.2 µM (inactive) in the assay on ACHN; 16 µM (inactive) with KM12; 32.7 µM (inactive) in the assay on K562; 13.3 µM (inactive) in the assay with UO-31; 17.5 µM (inactive) in the assay on HCT-116. For the same molecule, the GI50 with NCI-H23 was 24.8 µM (inactive).

Regarding `O=C(O)CCc1ccc2c(c1)CC1(Cc3ccccc3C1)C2`, the GI50 is > 100 µM (inactive) with MOLT-4; 80 µM (inactive) in the assay on CCRF-CEM; > 100 µM (inactive) in the assay with SF-539; 49.3 µM (inactive) with OVCAR-4; 79.8 µM (inactive) in the assay with NCI-H226; > 100 µM (inactive) in the assay with OVCAR-8. Also, the GI50 with SK-MEL-5 is > 100 µM (inactive); with NCI/ADR-RES, > 100 µM (inactive); with HOP-62, > 100 µM (inactive); with IGROV-1 it was > 100 µM (inactive); with NCI-H522, > 100 µM (inactive); with ACHN it was 58.5 µM (inactive). Also, the GI50 in the assay with KM12, in the assay with UO-31, in the assay with RPMI-8226, in the assay on HCT-116 and in the assay on NCI-H23 was > 100 µM (inactive) throughout.

Take `COC(=O)C(C)(NC(=O)C(CC(=O)OC(C)(C)C)NC(=O)OC(C)(C)C)c1ccccc1` (centres undefined): the GI50 in the assay on MOLT-4, with CCRF-CEM, in the assay with SNB-19, in the assay with SF-539, with NCI-H226 and in the assay with OVCAR-8 was > 100 µM (inactive) each time. For the same molecule, the GI50 in the assay on SK-MEL-5 is 68.4 µM (inactive); in the assay with NCI/ADR-RES, 55.1 µM (inactive); in the assay with HL-60, 81.7 µM (inactive); in the assay on HOP-62, > 100 µM (inactive); in the assay on IGROV-1 it was > 100 µM (inactive); in the assay with NCI-H522 it was > 100 µM (inactive). Moreover, the GI50 in the assay with ACHN is > 100 µM (inactive); in the assay on KM12, > 100 µM (inactive); in the assay with K562, > 100 µM (inactive); in the assay with UO-31, 26.5 µM (inactive); in the assay with RPMI-8226, 72.8 µM (inactive); in the assay on HCT-116 it was > 100 µM (inactive). Besides, the GI50 in the assay on NCI-H23 is > 100 µM (inactive).

`COc1cccc(N2C(=O)/C(=C\c3ccccc3)SC2c2cc(OC)c(OC)c(OC)c2)c1` (centres undefined): the GI50 was 27.5 µM (inactive) with MOLT-4; 37.8 µM (inactive) in the assay with CCRF-CEM; 77.6 µM (inactive) with SNB-19; 46.5 µM (inactive) with OVCAR-4; > 100 µM (inactive) in the assay with NCI-H226; 44.1 µM (inactive) in the assay with OVCAR-8. In addition, the GI50 in the assay on SK-MEL-5 was 42.9 µM (inactive); in the assay on NCI/ADR-RES it was 41.9 µM (inactive); with HL-60, 36 µM (inactive); in the assay on HOP-62, 37.6 µM (inactive); with IGROV-1 it was 31.3 µM (inactive); with NCI-H522, 22.2 µM (inactive). The GI50 with ACHN is > 100 µM (inactive); in the assay on KM12 it was 36.5 µM (inactive); in the assay on K562 it was 26.9 µM (inactive); with UO-31, 43.2 µM (inactive); in the assay with RPMI-8226, 32.1 µM (inactive); in the assay with HCT-116, 30.1 µM (inactive). The GI50 in the assay with NCI-H23 is 52.6 µM (inactive).

Take `NC(=O)N/N=C(\Cc1cc(=O)oc2cc(O)ccc12)C(=O)Nc1ccccc1C(N)=O`: the GI50 in the assay on MOLT-4, in the assay with CCRF-CEM, with SNB-19, in the assay with SF-539, in the assay with OVCAR-4 and with NCI-H226 was > 100 µM (inactive) throughout. The GI50 with OVCAR-8, with SK-MEL-5, in the assay on NCI/ADR-RES, in the assay with HL-60, with HOP-62 and with IGROV-1 was > 100 µM (inactive) in each case. Besides, the GI50 with NCI-H522, in the assay with ACHN, with KM12, with UO-31, in the assay on HCT-116 and with NCI-H23 was > 100 µM (inactive) throughout.

On to `Cc1ccc2nc(-n3c(/C=C/c4ccccc4O)nc4ccccc4c3=O)sc2c1`, for which the GI50 with MOLT-4 was > 100 µM (inactive); in the assay on CCRF-CEM, 16.5 µM (inactive); in the assay with SNB-19 it was > 100 µM (inactive); in the assay on OVCAR-4, > 100 µM (inactive); in the assay on NCI-H226, > 100 µM (inactive); with OVCAR-8, > 100 µM (inactive). Moreover, the GI50 with SK-MEL-5, with NCI/ADR-RES, in the assay with HL-60, in the assay with HOP-62, in the assay on IGROV-1 and in the assay with NCI-H522 was > 100 µM (inactive) each time. Besides, the GI50 is > 100 µM (inactive) with ACHN; > 100 µM (inactive) with KM12; > 100 µM (inactive) in the assay on K562; > 100 µM (inactive) in the assay with UO-31; 76.4 µM (inactive) in the assay on RPMI-8226; > 100 µM (inactive) with HCT-116. Moreover, in the assay with NCI-H23, the GI50 was > 100 µM (inactive).

`CCOC(=O)[C@@H]1ON2O[C@H](OC3CCCC3(c3ccccc3)c3ccccc3)C[C@H]3OC(=O)[C@@H]1C32` (some centres undefined): the GI50 in the assay on MOLT-4 was 45 µM (inactive); in the assay on CCRF-CEM, 26.3 µM (inactive); in the assay on SF-539 it was 65 µM (inactive); in the assay on NCI-H226 it was 36.4 µM (inactive); with OVCAR-8, 35.3 µM (inactive); with SK-MEL-5, 75.9 µM (inactive). In addition, the GI50 with NCI/ADR-RES was 31.8 µM (inactive); in the assay on HL-60 it was 22.2 µM (inactive); in the assay on HOP-62, > 100 µM (inactive); with IGROV-1, 33.7 µM (inactive); in the assay with NCI-H522, 36.4 µM (inactive); with ACHN it was 65.5 µM (inactive). In addition, the GI50 is 27.9 µM (inactive) in the assay on KM12; 41.2 µM (inactive) in the assay on K562; 37.6 µM (inactive) with UO-31; 35.6 µM (inactive) with RPMI-8226; 73.3 µM (inactive) in the assay with HCT-116; 27 µM (inactive) in the assay with NCI-H23.

Regarding `COC(CN(C)C(=O)C(C)NC(=O)c1ccccc1)OC` (centres undefined), the GI50 in the assay on MOLT-4, with CCRF-CEM, in the assay on SF-539, in the assay on OVCAR-4, with NCI-H226 and in the assay on OVCAR-8 was > 100 µM (inactive) each time. The GI50 in the assay on SK-MEL-5, in the assay on NCI/ADR-RES, in the assay with IGROV-1, with NCI-H522, with ACHN and with KM12 was > 100 µM (inactive) each time. In addition, the GI50 in the assay on K562, in the assay on RPMI-8226, in the assay with HCT-116 and with NCI-H23 was > 100 µM (inactive) each time.

Turning to `CC(=O)OCC1=C(C)C[C@H]([C@@H](COC(C)=O)C2CCC3C4C[C@H]5O[C@]56CC=CC(=O)[C@]6(C)C4CC[C@@]32C)OC1=O` (some centres undefined), the GI50 is 0.0204 µM (active) with MOLT-4; 0.0191 µM (active) in the assay with CCRF-CEM; 0.681 µM (active) in the assay with SNB-19; 0.359 µM (active) in the assay with OVCAR-4; 0.598 µM (active) with NCI-H226; 0.15 µM (active) in the assay on OVCAR-8. The GI50 in the assay with SK-MEL-5 was 0.269 µM (active); in the assay with NCI/ADR-RES, 0.185 µM (active); with HL-60, 0.0384 µM (active); in the assay on HOP-62, 0.634 µM (active); in the assay on IGROV-1, 0.184 µM (active); in the assay with NCI-H522, 0.134 µM (active). In addition, the GI50 is 0.302 µM (active) in the assay on ACHN; 0.138 µM (active) in the assay with KM12; 0.0106 µM (active) in the assay on K562; 0.993 µM (active) with UO-31; 0.0393 µM (active) in the assay with RPMI-8226; 0.097 µM (active) with HCT-116. For the same molecule, the GI50 in the assay with NCI-H23 was 0.37 µM (active).

Regarding `O=C(/C=C/c1ccc(O)c(O)c1)OCc1ccccc1` [BENZYL CAFFEATE], the GI50 is 2.28 µM (inactive) with MOLT-4; 27.6 µM (inactive) with SNB-19; 7.06 µM (inactive) in the assay with SF-539; 8.97 µM (inactive) with OVCAR-4; 31.3 µM (inactive) in the assay with NCI-H226; 9.73 µM (inactive) with SK-MEL-5. Further, the GI50 in the assay on NCI/ADR-RES was 15.8 µM (inactive); in the assay on HL-60 it was 0.938 µM (active); in the assay with HOP-62 it was 25.6 µM (inactive); in the assay on IGROV-1, 3.38 µM (inactive); with NCI-H522, 0.809 µM (active); with ACHN, 11.8 µM (inactive). Also, the GI50 in the assay with KM12 was 8.45 µM (inactive); in the assay with K562, 9.84 µM (inactive); in the assay with UO-31 it was 13.7 µM (inactive); with RPMI-8226 it was 10.6 µM (inactive); in the assay with HCT-116 it was 13.4 µM (inactive); in the assay with NCI-H23, 14.8 µM (inactive).

Turning to `CC(C)(S)C(N)C(=O)O` (stereo not drawn) [DL-PENICILLAMINE], the GI50 in the assay with MOLT-4, with SNB-19, in the assay with SF-539, in the assay with OVCAR-4, in the assay with NCI-H226 and in the assay on OVCAR-8 was > 100 µM (inactive) each time. The GI50 in the assay with SK-MEL-5, with NCI/ADR-RES, in the assay with HOP-62, in the assay with IGROV-1, in the assay on NCI-H522 and in the assay on ACHN was > 100 µM (inactive) throughout. Moreover, the GI50 in the assay on KM12, in the assay with K562, in the assay with RPMI-8226, with HCT-116 and with NCI-H23 was > 100 µM (inactive) each time.
